Laboratory results published in PMC12147034, “Identification of alkynyl nicotinamide HSN748 as a RET solvent-front mutant inhibitor with intracranial efficacy” (RSC Medicinal Chemistry, 2025).
Like-named read-outs stand apart in the source and are kept apart here.

Assay: In vivo pharmacokinetics and brain distribution in mice
Conditions: for Kp: CD1, mouse, brain and plasma, iv, 2 mg/kg
Protocol: For compound HSND19, male SD rats received an intravenous (IV) dose of 2 mg kg^−1 and an oral (PO) dose of 10 mg kg^−1. Both formulations were prepared in 10% DMSO/90% (20% HP-β-CD in water, w/w). Blood samples were collected at 0.25, 0.5, 1, 2, 4, 8, and 24 hours post-dosing. For compound HSN748, male SD rats received oral doses of 20, 50, and 100 mg kg^−1 in a solution of 0.5% methylcellulose (4000 cp)/0.1 M citrate buffer (pH 4.5). Blood samples were collected at 0.25, 0.5, 1, 2, 4, 6, 8, and 24 hours post-dosing. For IV administration, male CD1 mice received 2 mg kg^−1 prepared with 5% DMSO/5% Tween80/40% PEG400/50% PBS, with sampling at 0.083, 0.25, 0.5, 1, 2, 4, 8, and 24 hours.
In oral PK studies, blood samples were collected at each time point, with a total of 3 animals per study. In IV studies, animals were euthanized after blood collection at each time point to collect brain tissue, using a total of 21 animals per study. Whole blood samples were collected in heparinized tubes and centrifuged to separate plasma. Brain samples were rinsed, weighed, and immediately frozen in liquid nitrogen, and stored at −80 °C until analysis. The PK studies were conducted by Pharmaron (Beijing, China). Animal procedures were performed in accordance with the Guidelines for Care and Use of Laboratory Animals of Pharmaron (Beijing, China) and approved by the Animal Ethics Committee of Pharmaron (Beijing, China).
The mean concentration-time profiles were analyzed using Phoenix WinNonlin (version 8.4; Certara USA, Inc., Princeton, NJ) to calculate standard PK parameters, including the area under the curve from zero to infinity (AUC), bioavailability (F), clearance, volume of distribution, and half-life (t1/2).

[1] = male, CD1, plasma, Mouse, IV, 2 mg kg^-1

CN1CCN(Cc2ccc(NC(=O)c3cncc(C#Cc4cnc5cccnn45)c3)cc2C(F)(F)F)CC1 [HSN748]
AUCBrain (Mouse, IV, 2 mg kg^-1): 377 ng·h/mL | brain-to-plasma partition coefficient (Kp), AUCbrain/AUCPlasma (Mouse, IV, 2 mg kg^-1): 0.42 | peak brain concentrations (Mouse, IV, 2 mg kg^-1): exceeding 198 ng ml^-1 | Kp (male, 2 mg kg^-1, read-out: brain exposure as % of total plasma exposure (AUCplasma)): ~0.42 | Kp (male, 2 mg kg^-1, read-out: brain-to-plasma partition coefficient (Kp), AUCbrain/AUCPlasma): 0.4 | Cmax [1]: 513 ng/mL | Tmax [1]: 15 min | clearance [1]: 36.7 mL/min/kg | half-life [1]: 78 min | AUC (male, CD1, plasma, Mouse, IV, 2 mg kg^-1, read-out: AUCPlasma): 907 ng·h/mL | Vd (male, CD1, plasma, Mouse, IV, 2 mg kg^-1, read-out: Vss): 3.9 L/kg
